Source: article PMC10177380 (Cancers, 2023)
Several values for one entry are separate records, joined by “and”; a condition that tells them apart may be missing. Identical values can stand only once. Like-named read-outs stand apart in the source and are kept apart here.

Legend:
[1] = tested on: SJG2 glioblastoma; design: method as in PMID 36296713, PMID 36142383; conditions: cited from earlier work
[2] = tested on: A2780 ovarian; assay: MTT growth inhibition, 72 h, A2780; format: cell-based
[3] = tested on: MIA pancreas; assay: MTT growth inhibition, 72 h, MIA; format: cell-based
[4] = tested on: Du145 prostate; assay: MTT growth inhibition, 72 h, Du145; format: cell-based; conditions: for GI50: Du145, MTT, 72 h
[5] = tested on: HT29 colon; assay: MTT growth inhibition, 72 h, HT29; format: cell-based, human
[6] = tested on: SJG2 glioblastoma; assay: MTT growth inhibition, 72 h, SJG2; format: cell-based
[7] = tested on: multiple cell lines; assay: MTT growth inhibition, over all cell lines tested; format: cell-based
[8] = tested on: MCF7 breast; assay: MTT growth inhibition, 72 h, MCF7; format: cell-based; conditions: MCF7, MTT, 72 h
[9] = tested on: non-tumour derived MCF10A breast line; assay: MTT growth inhibition, 72 h, MCF10A; format: cell-based
[10] = tested on: U87 glioblastoma; assay: MTT growth inhibition, 72 h, U87; format: cell-based
[11] = tested on: HT29 colon cells; assay: ROS production, DCFDA/H2DCFDA cellular ROS assay; format: cell-based, human; conditions: treatment at GI50 concentration (TBHP positive control 20 μM)
Method: To determine the presence of ROS in treated cells, a DCFDA/H2DCFDA-cellular ROS Assay Kit (Abcam, Cambridge, MA, USA) was utilised, as previously reported. The ROS potential of platinum(II) precursors and platinum(IV) scaffolds, which were determined using the same method, were also presented in this study for comparison.
Additionally, the ROS potential of the platinum(II) precursors and platinum(IV) scaffolds was determined previously and was presented here to allow for comparison (Table 10 and Figure 13). […] Treatment with the complexes and ligands was completed at each specific GI50 concentration. […]
dimethylthiazol-2-yl]-2,5-diphenyltetrazolium bromide) assay and absorbance was read at 540 nm. An eight-point dose response curve was produced from which the GI50 value was calculated, representing the drug concentration at which cell growth was inhibited by 50% based on the difference between the optical density values on day 0 and those at the end of drug exposure.
4. Reactive Oxygen Species (ROS) Potential
A total of 25,000 cells/mL of HT29 cells in DMEM were seeded in 96-well plates. Cells were washed with 1X kit buffer, and then stained with 25 μM 2’,7’-dichlorofluorescein diacetate (DCFH-DA) and incubated for 45 min. DCFH-DA was then removed, and cells were then re-washed with 1X kit buffer, after which phenol red free media was added.
Cells were then treated with a GI50 drug concentration for each complex. The plates were directly scanned to measure fluorescence (relative fluorescence units (RFU)) at different time points using the Glo-Max®-Multimode microplate reader (Promega Corporation, Alexandra, VIC, Australia) at an excitation/emission of 485/535 nm. […]

[12] = tested on: H460 lung; assay: MTT growth inhibition, 72 h, H460; format: cell-based; conditions: for GI50: H460, MTT, 72 h
[13] = tested on: ADDP ovarian variant (cisplatin-resistant A2780 clone); assay: MTT growth inhibition, 72 h, ADDP; format: cell-based; conditions: ADDP, MTT, 72 h
[14] = tested on: BE2C neuroblastoma; assay: MTT growth inhibition, 72 h, BE2C; format: cell-based; conditions: BE2C, MTT, 72 h
[15] = Reduction with ascorbic acid (AsA) in PBS followed by 1H-NMR and 1D-195Pt-NMR; format: physicochemical; conditions: 37 °C; for Reduction Times T50%: estimated 50% reduction; for Reduction Times T50% / Reduction Times T100%: PBS in D2O; for Reduction Times T100%: estimated 100% reduction; for time of complete reduction to platinum(II) precursor: final 1D-195Pt-NMR at 400 ppm
Method: The reduction behaviour of 1–6 was probed via ^1H-NMR and 1D-^195Pt-NMR spectroscopy, as previously described (see Supplementary Materials).
The reduction behaviour of 1–6 was monitored by ^1H-NMR and 1D-^195Pt-NMR spectroscopy using previously established methods. Prior to the reduction measurements, each metal complex was dissolved with PBS in D2O only.
Based on the initial 1D-^195Pt-NMR spectra acquired (Figures S62 and S63), the structural integrity of the complexes was retained, and no signs of reduction were observed, thus also confirming that the PBS had no effect on the complexes. Subsequently, AsA was added in each solution containing the metal complex, PBS and D2O. Then, sequential ^1H-NMR experiments were undertaken for 1 h, followed by final 1D-^195Pt-NMR experiments measured within the regions of 400 and −2800 ppm (Figures S64–S75). The approximate time points for 1–6 at which an estimated 50 and 100% reduction had occurred, in the presence of AsA, as represented by T50% and T100%, are summarised in Table 8.
A sequence of 1H-NMR experiments was carried out for 1 h at 37 °C, followed by 1D-195Pt-NMR within the regions of –2800 and 400 ppm. An amount of 10 mM PBS (~7.4 pH) was transferred to a vial and reduced to dryness through rotary evaporation. AsA (~1 mg) was combined with the metal complex (~5 mg) and transferred to the vial containing the dried PBS. 600 μL of D2O was then added to the vial to dissolve the complex, AsA and the PBS together. Each reaction was followed at 37 °C until the complete reduction […]
The cell lines tested were: HT29 colon, U87 glioblastoma, MCF-7 breast, A2780 ovarian, H460 lung, A431 skin, Du145 prostate, BE2-C neuroblastoma, SJ-G2 glioblastoma, MIA pancreas, ADDP ovarian variant, and the non-tumour derived MCF10A breast line. In […]
agents were prepared in DMSO (30 mM stock solutions) and stored at −20 °C until use.
All cell lines were cultured in a humidified atmosphere 5% carbon dioxide at 37 °C. The cancer cell lines were maintained in Dulbecco’s modified Eagle’s medium (DMEM) (Trace Biosciences, Sydney, NSW, Australia) supplemented with 10% foetal bovine serum, 10 mM sodium bicarbonate penicillin (100 IU mL−1), streptomycin (100 μg mL−1) and glutamine (4 mM). The non-cancer MCF10A cell line was cultured in DMEM:F12 (1:1) cell culture media, 5% heat inactivated horse serum, supplemented with penicillin (50 IU mL−1), streptomycin (50 μg mL−1), 20 mM 4-(2-hydroxyethyl)-1-piperazineethanesulfonic acid (HEPES), L-glutamine (2 mM), epidermal growth factor (20 ng mL−1), hydrocortisone (500 ng mL−1), cholera toxin (100 ng mL−1) and insulin (10 μg mL−1). Cytotoxicity was determined by plating cells in duplicate in […] medium at a density of 2500 – 4000 cells per well in 96 well plates. On day 0 (24 h after plating) when the cells were in logarithmic growth, 100 μL of medium with or without the test agent

[16] = tested on: A431 skin; assay: MTT growth inhibition, 72 h, A431; format: cell-based
[17] = mean over all cell lines tested, read-out: Mean GI50 Values
[18] = all cell lines, MTT, 72 h, read-out: GI50 values over the cell lines tested

| Compound | GI50 [1] [nM] | GI50 [2] [nM] | GI50 [3] [nM] | GI50 [4] [nM] | GI50 [5] [nM] | GI50 [6] [nM] | GI50 [7, 17] [nM] | GI50 [8] [nM] | GI50 [9] [nM] | GI50 [10] [nM] | ROS Production ([11]; HT29, 24 h) [RFU] | ROS Production ([11]; HT29, 48 h) [RFU] | ROS Production ([11]; HT29, 72 h) | GI50 [12] [nM] | GI50 [13] [nM] | GI50 [14] [nM] | Reduction Times T50% [15] [min] | Reduction Times T100% [15] | GI50 [16] [nM] | other results |
| --- | --- | --- | --- | --- | --- | --- | --- | --- | --- | --- | --- | --- | --- | --- | --- | --- | --- | --- | --- | --- |
| Cc1cc2c3c4c1=CC=C[N]4[Pt+2][N]3C=CC=2.N[C@H]1CCCC[C@@H]1N [Complex 5MESS] | 220 ± 10 |  |  |  |  |  |  |  |  |  |  |  |  |  |  |  |  |  |  |  |
| COc1ccc2cc([C@H](C)C(=O)[O][Pt+2]3([OH])[N]4C=CC=c5cc(C)c6c(c54)[N]3C=CC=6)ccc2c1.N[C@H]1CCCC[C@@H]1N (stereo partly shown) [Complex 2, [Pt^IV(5-Mephen)(SS-DACH)(NPX)(OH)]^2+] |  | 290 ± 56 | 370 ± 54 | 130 ± 27 | 210 ± 19 | 620 ± 43 | 490 ± 75 | 720 ± 240 | 310 ± 12 | 1330 ± 190 | 290 ± 17 | 261 ± 15 | 84 RFU and 84 ± 9 RFU | 410 ± 37 | 280 ± 27 | 680 ± 17 | 10 to 15 | post 60 min | 530 ± 180 | time of complete reduction to platinum(II) precursor [15]: ~ 1.5 h |
| COc1ccc2c(c1)c(CC(=O)OCC(=O)O)c(C)n2C(=O)c1ccc(Cl)cc1 [ACE, acemetacin] |  |  | > 50000 |  |  |  | > 50000 |  |  | > 50000 | 279 ± 7 | 260 ± 9 | 132 ± 13 RFU |  |  |  |  |  |  | GI50 ([2]; Homo sapiens): > 50000 nM; GI50 ([4]; Homo sapiens, DU-145): > 50000 nM; GI50 ([5]; Homo sapiens, HT-29): > 50000 nM; GI50 ([6]; SJ-G2): > 50000 nM; GI50 [7, 18]: > 50000 nM; GI50 ([8]; Homo sapiens): > 50000 nM; GI50 ([9]; Homo sapiens, MCF-10A): > 50000 nM; GI50 ([12]; Homo sapiens, NCI-H460): > 50000 nM; GI50 ([13]; Cisplatin-resistant A2780): > 50000 nM; GI50 ([14]; Homo sapiens, BE(2)-C): > 50000 nM; GI50 ([16]; Homo sapiens, A-431): > 50000 nM |
| COc1ccc2c(c1)c(CC(=O)OCC(=O)[O][Pt-2]13([OH])([NH2+][C@H]4CCCC[C@@H]4[NH2+]1)[n+]1cccc4c(C)c(C)c5ccc[n+]3c5c41)c(C)n2C(=O)c1ccc(Cl)cc1 [Complex 6, [Pt^IV(5,6-Me2phen)(SS-DACH)(ACE)(OH)]^2+] |  | 10 ± 4 | 7.8 ± 4 | 0.22 ± 0.1 | 4.7 ± 4 | 130 ± 25 | 32 ± 7 | 12 ± 6 | 3.4 ± 1 | 28 ± 3 | 344 ± 17 | 312 ± 13 | 202 RFU and 202 ± 10 RFU | 16 ± 2 | 1.3 ± 0.5 | 160 ± 19 |  | 5 min | 16 ± 12 | fold more potent than its platinum(II) precursor ([4]; Du145): ~21 fold; fold more potent than the platinum(IV) scaffold [12]: ~12 fold |
| COc1ccc2cc([C@H](C)C(=O)[O][Pt+2]3([OH])[N]4C=CC=c5c(C)c(C)c6c(c54)[N]3C=CC=6)ccc2c1.N[C@H]1CCCC[C@@H]1N [Complex 3, [Pt^IV(5,6-Me2phen)(SS-DACH)(NPX)(OH)]^2+] |  | 39 ± 9 | 47 ± 7 | 10 ± 2 | 28 ± 6 | 230 ± 18 | 84 ± 12 | 60 ± 22 | 36 ± 4 | 180 ± 23 | 297 ± 21 | 287 ± 11 | 104 RFU and 104 ± 15 RFU | 56 ± 5 | 25 ± 2 | 220 ± 12 | 10 to 15 | post 60 min | 75 ± 33 | time of complete reduction to platinum(II) precursor [15]: ~ 1.5 h |
| COc1ccc2cc([C@H](C)C(=O)[O][Pt+2]3([OH])[N]4C=CC=c5ccc6c(c54)[N]3C=CC=6)ccc2c1.N[C@H]1CCCC[C@@H]1N [Complex 1, [Pt^IV(phen)(SS-DACH)(NPX)(OH)]^2+] |  | 420 ± 50 | 660 ± 100 | 230 ± 17 | 400 ± 23 | 1570 ± 67 | 931 ± 139 | 1120 ± 342 | 450 ± 24 | 2570 ± 440 | 235 ± 23 | 215 ± 19 | 63 RFU and 63 ± 7 RFU | 860 ± 124 | 400 ± 19 | 1470 ± 67 | 20 to 25 | post 60 min | 1020 ± 390 |  |
| N.N.[Cl][Pt][Cl] [Cisplatin, cis-diamminedichloroplatinum(II)] | 400 ± 100 |  |  |  |  |  |  |  |  |  | 299 ± 25 | 370 ± 22 | 392 ± 21 RFU |  |  |  |  |  |  |  |
| C1=C[N]2[Pt+2][N]3C=CC=c4ccc(c2c43)=C1.N[C@H]1CCCC[C@@H]1N [PHENSS] | 330 ± 66 |  |  |  |  |  |  |  |  |  |  |  |  |  |  |  |  |  |  |  |
| COc1ccc2cc([C@H](C)C(=O)O)ccc2c1 [NPX, naproxen] |  |  | > 50000 |  |  |  | > 50000 |  |  | > 50000 | 187 ± 12 | 178 ± 13 | 15 ± 5 RFU |  |  |  |  |  |  | GI50 ([2]; Homo sapiens): > 50000 nM; GI50 ([4]; Homo sapiens, DU-145): > 50000 nM; GI50 ([5]; Homo sapiens, HT-29): > 50000 nM; GI50 ([6]; SJ-G2): > 50000 nM; GI50 [7, 18]: > 50000 nM; GI50 ([8]; Homo sapiens): > 50000 nM; GI50 ([9]; Homo sapiens, MCF-10A): > 50000 nM; GI50 ([12]; Homo sapiens, NCI-H460): > 50000 nM; GI50 ([13]; Cisplatin-resistant A2780): > 50000 nM; GI50 ([14]; Homo sapiens, BE(2)-C): > 50000 nM |
| Cc1c(C)c2cccnc2c2ncccc12.N[C@H]1CCCC[C@@H]1N.[Pt] [Complex 56MESS, [Pt^II(5,6-Me2phen)(SS-DACH)]^2+] | 66 ± 22 |  |  |  |  |  |  |  |  |  |  |  |  |  |  |  |  |  |  |  |
